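In this assay, cells in 96-well plates receive the compound at five concentrations for 48 hours. Endpoints are linearly interpolated between the surrounding concentrations. GI50: concentration for 50% inhibition of growth.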 Activity calls are given as the source filed them. Rule as the data show it: active = GI50 up to about 1.1 µM and inactive = higher.
Assays:
Test in all cases: inhibition of tumour cell growth, NCI panel, 48 h
[1] = tested on: U-251
[2] = tested on: OVCAR-8
[3] = tested on: RPMI-8226
[4] = tested on: SK-MEL-2
[5] = tested on: M14
[6] = tested on: SF-295
[7] = tested on: MOLT-4
[8] = tested on: DMS-273
[9] = tested on: NCI-H23
[10] = tested on: KM12
[11] = tested on: SNB-75
[12] = tested on: COLO 205
[13] = tested on: Malme-3M
[14] = tested on: UACC-62
[15] = tested on: SF-268
[16] = tested on: HOP-62
[17] = tested on: LOX IMVI
[18] = tested on: NCI/ADR-RES
[19] = tested on: PC-3
[20] = tested on: T47D

| SMILES | GI50 [1] | GI50 [2] | GI50 [3] | GI50 [4] | GI50 [5] | GI50 [6] | GI50 [7] | GI50 [8] | GI50 [9] | GI50 [10] | GI50 [11] | GI50 [12] | GI50 [13] | GI50 [14] | GI50 [15] | GI50 [16] | GI50 [17] | GI50 [18] | GI50 [19] | GI50 [20] |
| --- | --- | --- | --- | --- | --- | --- | --- | --- | --- | --- | --- | --- | --- | --- | --- | --- | --- | --- | --- | --- |
| CC(C)(C)c1cc(C(OCCl)(C(F)(F)F)C(F)(F)F)c2c(c1)C(C(F)(F)F)(C(F)(F)F)OC21c2ccccc2C(=O)c2ccccc21 | > 100 µM (inactive) | > 100 µM (inactive) | > 100 µM (inactive) | > 100 µM (inactive) | > 100 µM (inactive) | > 100 µM (inactive) | > 100 µM (inactive) | > 100 µM (inactive) | > 100 µM (inactive) | > 100 µM (inactive) | > 100 µM (inactive) | > 100 µM (inactive) | > 100 µM (inactive) | – | – | – | – | – | – | – |
| O=C(/C=C/c1ccccc1Cl)c1ccc(Cl)cc1Cl | 12.9 µM (inactive) | 15.7 µM (inactive) | 9.55 µM (inactive) | – | 18.1 µM (inactive) | 19.3 µM (inactive) | 3.91 µM (inactive) | 15.7 µM (inactive) | 19.2 µM (inactive) | 11.4 µM (inactive) | 18.7 µM (inactive) | 18.1 µM (inactive) | 18.9 µM (inactive) | 14.5 µM (inactive) | 15 µM (inactive) | 23.2 µM (inactive) | – | – | – | – |
| c1ccc([P+](CCC[P+](c2ccccc2)(c2ccccc2)c2ccccc2)(c2ccccc2)c2ccccc2)cc1 | 6.65 µM (inactive) | 32.6 µM (inactive) | 7.38 µM (inactive) | – | 71.9 µM (inactive) | 31.3 µM (inactive) | – | 9.91 µM (inactive) | 25.2 µM (inactive) | 24.4 µM (inactive) | 31.8 µM (inactive) | 21.8 µM (inactive) | 70.8 µM (inactive) | 26.1 µM (inactive) | 40.4 µM (inactive) | 49.3 µM (inactive) | 23.7 µM (inactive) | – | – | – |
| COC(=O)CCCN(C)c1nc(N)n[nH]1 | > 100 µM (inactive) | > 100 µM (inactive) | > 100 µM (inactive) | – | > 100 µM (inactive) | > 100 µM (inactive) | > 100 µM (inactive) | > 100 µM (inactive) | > 100 µM (inactive) | > 100 µM (inactive) | 66.2 µM (inactive) | > 100 µM (inactive) | – | > 100 µM (inactive) | > 100 µM (inactive) | > 100 µM (inactive) | > 100 µM (inactive) | – | – | – |
| Clc1ncnc2c1ncn2CCCCCCCCCCCCn1cnc2c(Cl)ncnc21 | 11.6 µM (inactive) | 11.1 µM (inactive) | 2.13 µM (inactive) | 13.4 µM (inactive) | 15.3 µM (inactive) | 15.4 µM (inactive) | 6.78 µM (inactive) | 2.71 µM (inactive) | 2.49 µM (inactive) | 15.5 µM (inactive) | – | 15.6 µM (inactive) | – | 13.9 µM (inactive) | 14.3 µM (inactive) | 18.6 µM (inactive) | 1.43 µM (inactive) | – | – | – |
| C#CCNC(=O)ON1C(=O)CCC1=O | > 100 µM (inactive) | > 100 µM (inactive) | > 100 µM (inactive) | > 100 µM (inactive) | – | > 100 µM (inactive) | > 100 µM (inactive) | > 100 µM (inactive) | > 100 µM (inactive) | > 100 µM (inactive) | > 100 µM (inactive) | > 100 µM (inactive) | > 100 µM (inactive) | > 100 µM (inactive) | > 100 µM (inactive) | > 100 µM (inactive) | > 100 µM (inactive) | – | – | – |
| O=[N+]([O-])C(=C/c1cccc2ccccc12)/C(=C\c1cccc2ccccc12)[N+](=O)[O-] | 1.95 µM (inactive) | 2.42 µM (inactive) | 2.56 µM (inactive) | 9.73 µM (inactive) | 2.19 µM (inactive) | 2.58 µM (inactive) | 0.984 µM (active) | – | 1.98 µM (inactive) | 4.23 µM (inactive) | 6.95 µM (inactive) | 3.44 µM (inactive) | 2.07 µM (inactive) | 1.71 µM (inactive) | 2.32 µM (inactive) | 2.74 µM (inactive) | 1.61 µM (inactive) | 2.51 µM (inactive) | 5.24 µM (inactive) | 3.07 µM (inactive) |
| O=C(Cc1nc2ccccc2c(=O)n1-c1c(Cl)cccc1Cl)c1ccncc1 | 29.6 µM (inactive) | 29.7 µM (inactive) | – | 21.1 µM (inactive) | 30.6 µM (inactive) | 18 µM (inactive) | 19 µM (inactive) | 19.4 µM (inactive) | 36.8 µM (inactive) | 15.8 µM (inactive) | 25.1 µM (inactive) | 17.8 µM (inactive) | 24.7 µM (inactive) | 22.7 µM (inactive) | 31 µM (inactive) | 21.3 µM (inactive) | > 10 µM (inactive) | – | – | – |
